Tested on: MV-4-11 cells
Assay: Gene expression microarray analysis (Affymetrix PrimeView) and GSEA
Assay type: cell-based, human
Parameters: RFU PODN (11730768_x_at) / Fold change /veh PODN (11730768_x_at) / RFU LINC00158 (11744669_a_at) / Fold change /veh LINC00158 (11744669_a_at) / RFU DUSP10 (11751237_a_at) / Fold change /veh DUSP10 (11751237_a_at) / RFU ID3 (11757404_x_at) / Fold change /veh ID3 (11757404_x_at) / RFU PLEKHG5 (11737974_s_at) / Fold change /veh PLEKHG5 (11737974_s_at) / RFU LRRC4B (11730491_at) / Fold change /veh LRRC4B (11730491_at) / RFU GIMAP4 (11747438_a_at) / Fold change /veh GIMAP4 (11747438_a_at) / RFU KRT8 (11758183_x_at) / Fold change /veh KRT8 (11758183_x_at) / RFU CNN1 (11734310_a_at) / Fold change /veh CNN1 (11734310_a_at) / RFU VPS37D (11726825_at) / Fold change /veh VPS37D (11726825_at) / RFU C10orf10 (11716522_x_at) / Fold change /veh C10orf10 (11716522_x_at) / RFU KIR2DL2 /// KIR2DL4 /// KIR2DL5A /// KIR2DL5B /// KIR2DS1 /// KIR2DS2 /// KIR2DS3 /// KIR2DS4 /// KIR3DL3 /// KIR3DL3 /// KIR3DS1 (11738374_at) / Fold change /veh KIR2DL2 /// KIR2DL4 /// KIR2DL5A /// KIR2DL5B /// KIR2DS1 /// KIR2DS2 /// KIR2DS3 /// KIR2DS4 /// KIR3DL3 /// KIR3DL3 /// KIR3DS1 (11738374_at) / RFU C1QL1 (11718748_at) / Fold change /veh C1QL1 (11718748_at) / RFU TMPRSS4 (11747572_a_at) / Fold change /veh TMPRSS4 (11747572_a_at) / RFU HAMP (11756126_x_at) / Fold change /veh HAMP (11756126_x_at) / RFU RNFT2 (11725882_a_at) / Fold change /veh RNFT2 (11725882_a_at) / RFU NR4A2 (11747474_a_at) / Fold change /veh NR4A2 (11747474_a_at) / RFU ABCC12 (11746883_a_at) / Fold change /veh ABCC12 (11746883_a_at) / RFU TMEM136 (11760407_x_at) / Fold change /veh TMEM136 (11760407_x_at) / RFU CLDN22 /// WWC2 (11732394_at) / Fold change /veh CLDN22 /// WWC2 (11732394_at) / RFU HLA-DPB1 (11760878_x_at) / Fold change /veh HLA-DPB1 (11760878_x_at) / RFU SPINT1 (11716480_a_at) / Fold change /veh SPINT1 (11716480_a_at) / RFU GAP43 (11754022_s_at) / Fold change /veh GAP43 (11754022_s_at) / RFU A4GNT (11735810_at) / Fold change /veh A4GNT (11735810_at) / RFU PRB3 (11715151_x_at) / Fold change /veh PRB3 (11715151_x_at) / RFU TUBB4B (11761932_at) / Fold change /veh TUBB4B (11761932_at) / RFU CAPN14 (11732068_a_at) / Fold change /veh CAPN14 (11732068_a_at) / RFU TMCC2 (11721928_a_at) / Fold change /veh TMCC2 (11721928_a_at) / RFU IRGQ (11745062_a_at) / Fold change /veh IRGQ (11745062_a_at) / RFU FAM174B (11720279_a_at) / Fold change /veh FAM174B (11720279_a_at) / RFU TMPRSS4 (11748680_a_at) / Fold change /veh TMPRSS4 (11748680_a_at) / RFU FAM212B (11763350_a_at) / Fold change /veh FAM212B (11763350_a_at) / RFU PLEKHG5 (11743358_a_at) / Fold change /veh PLEKHG5 (11743358_a_at) / RFU ZSCAN30 (11745921_a_at) / Fold change /veh ZSCAN30 (11745921_a_at) / RFU CMKLR1 (11741424_a_at) / Fold change /veh CMKLR1 (11741424_a_at) / RFU LOC101060620 /// MAPK8IP1 (11723275_at) / Fold change /veh LOC101060620 /// MAPK8IP1 (11723275_at) / RFU SPTSSB (11747773_x_at) / Fold change /veh SPTSSB (11747773_x_at) / RFU PRSS12 (11739890_at) / Fold change /veh PRSS12 (11739890_at) / RFU BIN1 (11741810_x_at) / Fold change /veh BIN1 (11741810_x_at) / RFU WNT11 (11732464_a_at) / Fold change /veh WNT11 (11732464_a_at) / RFU C10orf10 (11716521_a_at) / Fold change /veh C10orf10 (11716521_a_at) / RFU C5orf56 (11738089_at) / Fold change /veh C5orf56 (11738089_at) / RFU CYB561 (11721691_x_at) / Fold change /veh CYB561 (11721691_x_at) / RFU ANKRD19P (11752326_a_at) / Fold change /veh ANKRD19P (11752326_a_at) / RFU OR2T12 /// OR2T33 /// OR2T8 (11738714_s_at) / Fold change /veh OR2T12 /// OR2T33 /// OR2T8 (11738714_s_at) / RFU VCAN (11748164_a_at) / Fold change /veh VCAN (11748164_a_at) / RFU JSRP1 (11732532_at) / Fold change /veh JSRP1 (11732532_at) / RFU KRTAP10-11 (11738290_x_at) / Fold change /veh KRTAP10-11 (11738290_x_at) / RFU MYO3A (11730013_a_at) / Fold change /veh MYO3A (11730013_a_at) / RFU EBF3 (11725865_a_at) / Fold change /veh EBF3 (11725865_a_at) / RFU CAMK2N1 (11719241_x_at) / Fold change /veh CAMK2N1 (11719241_x_at) / RFU C5orf56 (11738088_a_at) / Fold change /veh C5orf56 (11738088_a_at) / RFU OLFML3 (11715873_a_at) / Fold change /veh OLFML3 (11715873_a_at) / RFU LOC100653217 /// NTM (11731650_a_at) / Fold change /veh LOC100653217 /// NTM (11731650_a_at) / RFU MAPK11 (11762145_a_at) / Fold change /veh MAPK11 (11762145_a_at) / RFU FIZ1 (11724087_x_at) / Fold change /veh FIZ1 (11724087_x_at) / RFU OASL (11726364_x_at) / Fold change /veh OASL (11726364_x_at) / RFU SOX15 (11748057_x_at) / Fold change /veh SOX15 (11748057_x_at) / RFU CD79A (11719716_a_at) / Fold change /veh CD79A (11719716_a_at) / RFU HIST1H1D (11736915_at) / Fold change /veh HIST1H1D (11736915_at) / RFU CASKIN2 (11723855_a_at) / Fold change /veh CASKIN2 (11723855_a_at) / RFU LOC730098 (11760151_x_at) / Fold change /veh LOC730098 (11760151_x_at) / RFU OR4N2 (11742367_at) / Fold change /veh OR4N2 (11742367_at) / RFU PRRT2 (11749266_a_at) / Fold change /veh PRRT2 (11749266_a_at) / RFU SNX32 (11753110_a_at) / Fold change /veh SNX32 (11753110_a_at) / RFU CDHR5 (11726645_a_at) / Fold change /veh CDHR5 (11726645_a_at) / RFU RCAN1 (11760418_a_at) / Fold change /veh RCAN1 (11760418_a_at) / RFU FAM167A (11723789_a_at) / Fold change /veh FAM167A (11723789_a_at) / RFU FAM26E (11764081_at) / Fold change /veh FAM26E (11764081_at) / RFU ISYNA1 (11749810_s_at) / Fold change /veh ISYNA1 (11749810_s_at) / RFU ACY1 (11761880_at) / Fold change /veh ACY1 (11761880_at) / RFU 11764098_at / Fold change /veh 11764098_at / RFU SAMD14 (11745864_x_at) / Fold change /veh SAMD14 (11745864_x_at) / RFU NPB (11741838_a_at) / Fold change /veh NPB (11741838_a_at) / RFU TMPRSS6 (11731388_a_at) / Fold change /veh TMPRSS6 (11731388_a_at) / RFU KRTAP10-2 (11738614_at) / Fold change /veh KRTAP10-2 (11738614_at) / RFU ARHGAP8 /// PRR5-ARHGAP8 (11727945_x_at) / Fold change /veh ARHGAP8 /// PRR5-ARHGAP8 (11727945_x_at) / RFU KRTAP5-7 /// NADSYN1 (11734609_at) / Fold change /veh KRTAP5-7 /// NADSYN1 (11734609_at) / RFU RASL12 (11751679_a_at) / Fold change /veh RASL12 (11751679_a_at) / RFU CDKN2B (11736163_a_at) / Fold change /veh CDKN2B (11736163_a_at) / RFU PRF1 (11729649_at) / Fold change /veh PRF1 (11729649_at) / RFU, ZNF638 /// ZNF638-IT1 / Fold change vs veh, ZNF638 /// ZNF638-IT1 / RFU, PANK3 / Fold change vs veh, PANK3 / RFU, SH3YL1 / Fold change vs veh, SH3YL1 / RFU, ZEB2 / Fold change vs veh, ZEB2 / RFU, NRIP1 / Fold change vs veh, NRIP1 / RFU, PTTG1IP / Fold change vs veh, PTTG1IP / RFU, CAPN2 / Fold change vs veh, CAPN2 / RFU, MED14 / Fold change vs veh, MED14 / RFU, SNORA58 / Fold change vs veh, SNORA58 / RFU, C1orf63 / Fold change vs veh, C1orf63 / RFU, LRRFIP1 / Fold change vs veh, LRRFIP1 / RFU, NDUFAF7 / Fold change vs veh, NDUFAF7 / RFU, SLC12A2 / Fold change vs veh, SLC12A2 / RFU, IBTK / Fold change vs veh, IBTK / RFU, ESF1 / Fold change vs veh, ESF1 / Fold change vs veh, TMEM50B / RFU, TAOK1 / Fold change vs veh, TAOK1 / RFU, ACBD3 / Fold change vs veh, ACBD3 / RFU, TMA16 / Fold change vs veh, TMA16 / RFU, RWDD3 / Fold change vs veh, RWDD3 / RFU, BCAT1 / Fold change vs veh, BCAT1 / RFU, EDEM3 / Fold change vs veh, EDEM3 / RFU, TMEM33 / Fold change vs veh, TMEM33 / RFU, WDR75 / Fold change vs veh, WDR75 / RFU, AHCTF1 / Fold change vs veh, AHCTF1 / RFU, TFRC / Fold change vs veh, TFRC / RFU, ZDHHC17 / Fold change vs veh, ZDHHC17 / RFU, NOM1 / Fold change vs veh, NOM1 / RFU, ARL8B / Fold change vs veh, ARL8B / RFU, ZBTB11 / Fold change vs veh, ZBTB11 / RFU, TAMM41 / Fold change vs veh, TAMM41 / RFU, KIAA1704 /// LOC100996395 / Fold change vs veh, KIAA1704 /// LOC100996395 / RFU, ING1 / Fold change vs veh, ING1 / RFU, TRMT61B / Fold change vs veh, TRMT61B / RFU, FUBP3 / Fold change vs veh, FUBP3 / RFU, TP53 / Fold change vs veh, TP53 / RFU, TNKS2 / Fold change vs veh, TNKS2 / RFU, ZFP14 / Fold change vs veh, ZFP14 / RFU, ACTR2 / Fold change vs veh, ACTR2 / RFU, PPP3R1 / Fold change vs veh, PPP3R1 / RFU, PIK3R1 / Fold change vs veh, PIK3R1 / RFU, HNRNPA1 / Fold change vs veh, HNRNPA1 / RFU, RNF170 / Fold change vs veh, RNF170 / RFU, ZNF28 / Fold change vs veh, ZNF28 / RFU, RNGTT / Fold change vs veh, RNGTT / RFU, OGT / Fold change vs veh, OGT / RFU, BRD1 / Fold change vs veh, BRD1 / RFU, MARS / Fold change vs veh, MARS / RFU, ZNF655 / Fold change vs veh, ZNF655 / RFU, FAHD1 / Fold change vs veh, FAHD1 / RFU, BDP1 / Fold change vs veh, BDP1 / RFU, LRRCC1 / Fold change vs veh, LRRCC1 / RFU, ARID1A / Fold change vs veh, ARID1A / RFU, ZNF146 / Fold change vs veh, ZNF146 / RFU, ZNF330 / Fold change vs veh, ZNF330 / RFU, GPN3 / Fold change vs veh, GPN3 / RFU, C9orf123 / Fold change vs veh, C9orf123 / RFU, N4BP2L2 / Fold change vs veh, N4BP2L2 / RFU, ARFIP1 / Fold change vs veh, ARFIP1 / RFU, FAM179B / Fold change vs veh, FAM179B / RFU, BCL10 / Fold change vs veh, BCL10 / RFU, UHRF1BP1L / Fold change vs veh, UHRF1BP1L / RFU, BET1 / Fold change vs veh, BET1 / RFU, CNOT2 / Fold change vs veh, CNOT2 / RFU, ZNF268 / Fold change vs veh, ZNF268 / Fold change vs veh, ZNF507 / RFU, DGCR2 / Fold change vs veh, DGCR2 / RFU, WDSUB1 / Fold change vs veh, WDSUB1 / Fold change vs veh, HSP90B1 /// MIR3652 / RFU, ADSS / Fold change vs veh, ADSS / RFU, GK / Fold change vs veh, GK / RFU, ZNF148 / Fold change vs veh, ZNF148 / RFU, TAF9 / Fold change vs veh, TAF9 / RFU, SLC1A5 / Fold change vs veh, SLC1A5 / RFU, SLMO2 / Fold change vs veh, SLMO2 / RFU, ABCC4 / Fold change vs veh, ABCC4 / RFU, LOC101060439 /// RAP1B / Fold change vs veh, LOC101060439 /// RAP1B / RFU, RFX7 / Fold change vs veh, RFX7 / RFU, GTPBP10 / Fold change vs veh, GTPBP10 / RFU, CNEP1R1 / Fold change vs veh, CNEP1R1 / RFU, BIVM-ERCC5 /// ERCC5 / Fold change vs veh, BIVM-ERCC5 /// ERCC5 / RFU, ILF3 / Fold change vs veh, ILF3 / RFU 11762660_at / Fold change /veh 11762660_at / RFU VCAN (11757783_s_at) / Fold change /veh VCAN (11757783_s_at) / RFU DDX43 (11728927_at) / Fold change /veh DDX43 (11728927_at) / RFU KRT8 (11758188_x_at) / Fold change /veh KRT8 (11758188_x_at) / RFU NKD1 (11759106_at) / Fold change /veh NKD1 (11759106_at) / RFU SRD5A1 (11742802_a_at) / Fold change /veh SRD5A1 (11742802_a_at) / RFU TPSAB1 /// TPSB2 (11721975_s_at) / Fold change /veh TPSAB1 /// TPSB2 (11721975_s_at) / RFU GSTM3 (11746129_a_at) / Fold change /veh GSTM3 (11746129_a_at) / RFU IL23R (11737362_x_at) / Fold change /veh IL23R (11737362_x_at) / RFU TMEM51 (11727254_a_at) / Fold change /veh TMEM51 (11727254_a_at) / RFU PIWIL2 (11732686_x_at) / Fold change /veh PIWIL2 (11732686_x_at) / RFU ORM1 (11744905_x_at) / Fold change /veh ORM1 (11744905_x_at) / RFU CCDC152 (11743942_at) / Fold change /veh CCDC152 (11743942_at) / RFU ECM1 (11717891_a_at) / Fold change /veh ECM1 (11717891_a_at) / RFU IL23R (11748794_a_at) / Fold change /veh IL23R (11748794_a_at) / RFU TNFAIP8L3 (11732012_x_at) / Fold change /veh TNFAIP8L3 (11732012_x_at) / RFU MBOAT4 (11741988_at) / Fold change /veh MBOAT4 (11741988_at) / RFU 11764193_at / Fold change /veh 11764193_at / RFU TMEM53 (11763286_at) / Fold change /veh TMEM53 (11763286_at) / RFU MAGEB2 (11727129_at) / Fold change /veh MAGEB2 (11727129_at) / RFU TMEM200A (11744735_a_at) / Fold change /veh TMEM200A (11744735_a_at) / RFU CCDC152 (11751479_a_at) / Fold change /veh CCDC152 (11751479_a_at) / RFU FAM211A (11726209_a_at) / Fold change /veh FAM211A (11726209_a_at) / RFU RGS16 (11746705_a_at) / Fold change /veh RGS16 (11746705_a_at) / RFU VCAN (11755009_s_at) / Fold change /veh VCAN (11755009_s_at) / RFU RHOB (11743442_s_at) / Fold change /veh RHOB (11743442_s_at) / RFU RGS16 (11720943_a_at) / Fold change /veh RGS16 (11720943_a_at) / RFU RGS16 (11720944_at) / Fold change /veh RGS16 (11720944_at) / RFU, VPS4B / Fold change vs veh, VPS4B / RFU, CREB1 / Fold change vs veh, CREB1 / RFU, DNAJC13 / Fold change vs veh, DNAJC13 / RFU, GNAQ / Fold change vs veh, GNAQ / RFU, CDK5R1 / Fold change vs veh, CDK5R1 / RFU, ZRANB3 / Fold change vs veh, ZRANB3 / RFU, CUL4A / Fold change vs veh, CUL4A / RFU, CCNY / Fold change vs veh, CCNY / RFU, UFL1 / Fold change vs veh, UFL1 / RFU, COG3 / Fold change vs veh, COG3 / RFU, DIAPH2 / Fold change vs veh, DIAPH2 / RFU, SKA2 / Fold change vs veh, SKA2 / RFU, AFF3 / Fold change vs veh, AFF3 / RFU, LMF1 / Fold change vs veh, LMF1 / RFU, IPO11 / Fold change vs veh, IPO11 / RFU, DFFB / Fold change vs veh, DFFB / RFU, FOXP1 / Fold change vs veh, FOXP1 / RFU, CARD8 / Fold change vs veh, CARD8 / RFU, STRN3 / Fold change vs veh, STRN3 / RFU, ADK / Fold change vs veh, ADK / RFU, RASSF2 / Fold change vs veh, RASSF2 / RFU, WIPF1 / Fold change vs veh, WIPF1 / RFU, LARP1B / Fold change vs veh, LARP1B / RFU, RASA1 / Fold change vs veh, RASA1 / RFU, RB1 / Fold change vs veh, RB1 / RFU, PPFIA1 / Fold change vs veh, PPFIA1 / RFU, MAT2A / Fold change vs veh, MAT2A / RFU, CCT5 / Fold change vs veh, CCT5 / RFU, WDR92 / Fold change vs veh, WDR92 / RFU, CUX1 / Fold change vs veh, CUX1 / RFU, TTC7A / Fold change vs veh, TTC7A / RFU, TMEM135 / Fold change vs veh, TMEM135 / RFU, DEPTOR / Fold change vs veh, DEPTOR / RFU, CPM / Fold change vs veh, CPM / RFU, DNAJB6 / Fold change vs veh, DNAJB6 / RFU, CACNA2D3 / Fold change vs veh, CACNA2D3 / RFU, DTX4 / Fold change vs veh, DTX4 / RFU, TFCP2 / Fold change vs veh, TFCP2 / RFU, GMCL1 /// GMCL1P1 / Fold change vs veh, GMCL1 /// GMCL1P1 / RFU, AEBP2 / Fold change vs veh, AEBP2 / RFU, SNHG1 /// SNORD22 /// SNORD25 /// SNORD26 /// SNORD27 /// SNORD28 /// SNORD29 /// SNORD31 / Fold change vs veh, SNHG1 /// SNORD22 /// SNORD25 /// SNORD26 /// SNORD27 /// SNORD28 /// SNORD29 /// SNORD31 / Fold change (Aza/veh), C12orf56 (ProbeSet 11735607_a_at) / Fold change (ACY-1035/veh), C12orf56 (ProbeSet 11735607_a_at) / Fold change (Aza/veh), FGFR1OP (ProbeSet 11751329_s_at) / Fold change (ACY-1035/veh), FGFR1OP (ProbeSet 11751329_s_at) / Fold change (Aza/veh), VPS36 (ProbeSet 11739960_a_at) / Fold change (ACY-1035/veh), VPS36 (ProbeSet 11739960_a_at) / RFU SYPL1 (11715823_x_at) / Fold change /veh SYPL1 (11715823_x_at) / RFU IGFBP7 (11715501_s_at) / Fold change /veh IGFBP7 (11715501_s_at) / RFU REEP3 (11722064_at) / Fold change /veh REEP3 (11722064_at) / RFU IGLL1 (11728026_x_at) / Fold change /veh IGLL1 (11728026_x_at): dose or concentration left out as unconfirmed
Conditions: MV-4-11 cells, 48 hours

`Nc1ncn([C@@H]2O[C@H](CO)[C@@H](O)[C@H]2O)c(=O)n1` [azacitidine] was tested, and the “RFU OR2T12 /// OR2T33 /// OR2T8 (11738714_s_at)” value was 6.40 RFU.
